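Grown in 96-well plates, cells were treated for 48 hours with each compound at five concentrations. Insufficient inhibition: endpoint recorded as highest concentration tested. GI50 is the concentration that inhibits growth by half.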 Activity calls are given as the source filed them. No stated cut-off is given here; in the data, active = GI50 up to about 1.1 µM and inactive = higher.
Experiments:
Experiment in all cases: NCI anticancer screen, dose series, 48 h
Hs-578T = system: Hs-578T
NCI-H226 = system: NCI-H226
OVCAR-4 = system: OVCAR-4
SF-539 = system: SF-539
SK-MEL-28 = system: SK-MEL-28
SF-268 = system: SF-268
OVCAR-3 = system: OVCAR-3
NCI-H522 = system: NCI-H522
T47D = system: T47D
LOX IMVI = system: LOX IMVI
MDA-N = system: MDA-N
OVCAR-8 = system: OVCAR-8
HOP-62 = system: HOP-62
SF-295 = system: SF-295
M14 = system: M14
CCRF-CEM = system: CCRF-CEM
UACC-62 = system: UACC-62
SK-MEL-2 = system: SK-MEL-2
DU-145 = system: DU-145
SK-OV-3 = system: SK-OV-3
SR = system: SR
MOLT-4 = system: MOLT-4
SNB-75 = system: SNB-75
Malme-3M = system: Malme-3M
HCT-15 = system: HCT-15
PC-3 = system: PC-3
OVCAR-5 = system: OVCAR-5
SW-620 = system: SW-620
COLO 205 = system: COLO 205
HL-60 = system: HL-60
HCC 2998 = system: HCC 2998
A549 = system: A549
BT-549 = system: BT-549
MCF7 = system: MCF7
UO-31 = system: UO-31
UACC-257 = system: UACC-257
HT-29 = system: HT-29
SK-MEL-5 = system: SK-MEL-5
ACHN = system: ACHN
HCT-116 = system: HCT-116
TK-10 = system: TK-10
MDA-MB-435 = system: MDA-MB-435
EKVX = system: EKVX
A498 = system: A498
U-251 = system: U-251
NCI-H460 = system: NCI-H460
NCI-H23 = system: NCI-H23
IGROV-1 = system: IGROV-1
SNB-19 = system: SNB-19
RPMI-8226 = system: RPMI-8226
K562 = system: K562
786-0 = system: 786-0
SN12C = system: SN12C
KM12 = system: KM12
NCI/ADR-RES = system: NCI/ADR-RES
RXF 393 = system: RXF 393
HOP-92 = system: HOP-92
MDA-MB-231 = system: MDA-MB-231
CAKI-1 = system: CAKI-1

CS(=O)(=O)CC(=O)c1ccccc1
GI50 (Hs-578T): > 100 µM (inactive)
GI50 (NCI-H226): > 100 µM (inactive)
GI50 (OVCAR-4): > 100 µM (inactive)
GI50 (SF-539): > 100 µM (inactive)
GI50 (SK-MEL-28): > 100 µM (inactive)
GI50 (SF-268): > 100 µM (inactive)
GI50 (OVCAR-3): > 100 µM (inactive)
GI50 (NCI-H522): > 100 µM (inactive)
GI50 (T47D): > 100 µM (inactive)
GI50 (LOX IMVI): > 100 µM (inactive)
GI50 (MDA-N): > 100 µM (inactive)
GI50 (OVCAR-8): > 100 µM (inactive)
GI50 (HOP-62): > 100 µM (inactive)
GI50 (SF-295): > 100 µM (inactive)
GI50 (M14): > 100 µM (inactive)
GI50 (CCRF-CEM): > 100 µM (inactive)
GI50 (UACC-62): > 100 µM (inactive)
GI50 (SK-MEL-2): > 100 µM (inactive)
GI50 (DU-145): > 100 µM (inactive)
GI50 (SK-OV-3): > 100 µM (inactive)
GI50 (SR): > 100 µM (inactive)
GI50 (MOLT-4): > 100 µM (inactive)
GI50 (SNB-75): 38.8 µM (inactive)
GI50 (Malme-3M): > 100 µM (inactive)
GI50 (HCT-15): > 100 µM
GI50 (PC-3): > 100 µM (inactive)
GI50 (OVCAR-5): > 100 µM (inactive)
GI50 (SW-620): > 100 µM (inactive)
GI50 (COLO 205): > 100 µM (inactive)
GI50 (HL-60): > 100 µM (inactive)
GI50 (HCC 2998): > 100 µM (inactive)
GI50 (A549): > 100 µM (inactive)
GI50 (BT-549): > 100 µM (inactive)
GI50 (MCF7): > 100 µM (inactive)
GI50 (UO-31): > 100 µM (inactive)
GI50 (UACC-257): > 100 µM (inactive)
GI50 (HT-29): > 100 µM (inactive)
GI50 (SK-MEL-5): > 100 µM (inactive)
GI50 (ACHN): > 100 µM (inactive)
GI50 (HCT-116): > 100 µM (inactive)
GI50 (TK-10): > 100 µM (inactive)
GI50 (MDA-MB-435): > 100 µM (inactive)
GI50 (EKVX): > 100 µM (inactive)
GI50 (A498): > 100 µM (inactive)
GI50 (U-251): > 100 µM (inactive)
GI50 (NCI-H460): > 100 µM (inactive)
GI50 (NCI-H23): > 100 µM (inactive)
GI50 (IGROV-1): > 100 µM (inactive)
GI50 (SNB-19): > 100 µM (inactive)
GI50 (RPMI-8226): > 100 µM (inactive)
GI50 (K562): > 100 µM (inactive)
GI50 (786-0): > 100 µM (inactive)
GI50 (SN12C): > 100 µM (inactive)
GI50 (KM12): > 100 µM (inactive)
GI50 (NCI/ADR-RES): > 100 µM (inactive)
GI50 (RXF 393): > 100 µM (inactive)

CCCCCCCN1C(=O)C(O)(c2ccc(C3(O)C(=O)N(CCCCCCC)c4ccccc43)s2)c2ccccc21 (stereo not drawn)
GI50 (Hs-578T): 2.79 µM (inactive)
GI50 (OVCAR-4): 2.01 µM (inactive)
GI50 (SF-539): 1.79 µM (inactive)
GI50 (HOP-92): 1.84 µM (inactive)
GI50 (SK-MEL-28): 2.07 µM (inactive)
GI50 (SF-268): 2.11 µM (inactive)
GI50 (T47D): 4.39 µM (inactive)
GI50 (LOX IMVI): 1.96 µM (inactive)
GI50 (MDA-N): 1.99 µM (inactive)
GI50 (OVCAR-8): 2.04 µM (inactive)
GI50 (HOP-62): 1.77 µM (inactive)
GI50 (SF-295): 1.85 µM (inactive)
GI50 (M14): 1.79 µM (inactive)
GI50 (CCRF-CEM): 3.87 µM (inactive)
GI50 (UACC-62): 2.12 µM (inactive)
GI50 (SK-MEL-2): 1.47 µM (inactive)
GI50 (DU-145): 1.65 µM (inactive)
GI50 (SK-OV-3): 0.753 µM (active)
GI50 (SR): 4.83 µM (inactive)
GI50 (MOLT-4): 2.03 µM (inactive)
GI50 (SNB-75): 5.4 µM (inactive)
GI50 (HCT-15): 2.12 µM
GI50 (PC-3): 1.97 µM (inactive)
GI50 (OVCAR-5): 1.68 µM (inactive)
GI50 (SW-620): 2.18 µM (inactive)
GI50 (COLO 205): 1.63 µM (inactive)
GI50 (HL-60): 1.56 µM (inactive)
GI50 (HCC 2998): 1.87 µM (inactive)
GI50 (BT-549): 2.33 µM (inactive)
GI50 (MCF7): 2.21 µM (inactive)
GI50 (UO-31): 1.57 µM (inactive)
GI50 (UACC-257): 2.07 µM (inactive)
GI50 (HT-29): 1.78 µM (inactive)
GI50 (SK-MEL-5): 1.79 µM (inactive)
GI50 (ACHN): 2.26 µM (inactive)
GI50 (HCT-116): 1.73 µM (inactive)
GI50 (TK-10): 2.25 µM (inactive)
GI50 (MDA-MB-435): 2.05 µM (inactive)
GI50 (U-251): 1.74 µM (inactive)
GI50 (NCI-H460): 1.79 µM (inactive)
GI50 (IGROV-1): 2.35 µM (inactive)
GI50 (SNB-19): 2.81 µM (inactive)
GI50 (RPMI-8226): 2.04 µM (inactive)
GI50 (K562): 2.99 µM (inactive)
GI50 (786-0): 1.91 µM (inactive)
GI50 (MDA-MB-231): 2.19 µM (inactive)
GI50 (SN12C): 1.9 µM (inactive)
GI50 (KM12): 1.8 µM (inactive)

O=P(c1ccccc1)(c1ccccc1)c1ccc2c(c1)OCCOCCOCCOCCO2
GI50 (Hs-578T): > 100 µM (inactive)
GI50 (NCI-H226): > 100 µM (inactive)
GI50 (SF-539): > 100 µM (inactive)
GI50 (SK-MEL-28): > 100 µM (inactive)
GI50 (SF-268): > 100 µM (inactive)
GI50 (NCI-H522): > 100 µM (inactive)
GI50 (T47D): > 100 µM (inactive)
GI50 (LOX IMVI): > 100 µM (inactive)
GI50 (MDA-N): > 100 µM (inactive)
GI50 (OVCAR-8): > 100 µM (inactive)
GI50 (HOP-62): > 100 µM (inactive)
GI50 (SF-295): > 100 µM (inactive)
GI50 (M14): > 100 µM (inactive)
GI50 (CCRF-CEM): > 100 µM (inactive)
GI50 (UACC-62): > 100 µM (inactive)
GI50 (DU-145): > 100 µM (inactive)
GI50 (SK-OV-3): > 100 µM (inactive)
GI50 (SR): > 100 µM (inactive)
GI50 (MOLT-4): > 100 µM (inactive)
GI50 (SNB-75): > 100 µM (inactive)
GI50 (Malme-3M): > 100 µM (inactive)
GI50 (HCT-15): > 100 µM
GI50 (PC-3): > 100 µM (inactive)
GI50 (SW-620): > 100 µM (inactive)
GI50 (COLO 205): > 100 µM (inactive)
GI50 (HL-60): > 100 µM (inactive)
GI50 (HCC 2998): > 100 µM (inactive)
GI50 (A549): > 100 µM (inactive)
GI50 (BT-549): > 100 µM (inactive)
GI50 (MCF7): > 100 µM (inactive)
GI50 (UO-31): > 100 µM (inactive)
GI50 (SK-MEL-5): > 100 µM (inactive)
GI50 (ACHN): > 100 µM (inactive)
GI50 (HCT-116): > 100 µM (inactive)
GI50 (TK-10): > 100 µM (inactive)
GI50 (MDA-MB-435): > 100 µM (inactive)
GI50 (EKVX): > 100 µM (inactive)
GI50 (A498): > 100 µM (inactive)
GI50 (NCI-H460): > 100 µM (inactive)
GI50 (NCI-H23): > 100 µM (inactive)
GI50 (IGROV-1): > 100 µM (inactive)
GI50 (SNB-19): > 100 µM (inactive)
GI50 (RPMI-8226): > 100 µM (inactive)
GI50 (K562): > 100 µM (inactive)
GI50 (786-0): > 100 µM (inactive)
GI50 (CAKI-1): > 100 µM (inactive)
GI50 (MDA-MB-231): > 100 µM (inactive)
GI50 (SN12C): > 100 µM (inactive)
GI50 (KM12): > 100 µM (inactive)
